“And” between values parts separate entries of the source, which are not always exact repeats. Equal values may be shown once. “Also recorded” adds a separate entry of the source.
Experiments:
eqBuChE = target: T1, eqBuChE (Equus caballus, UniProt P81908); experiment: biochemical; conditions: means±SEM of at least three experiments
T1 construct: purchased Sigma-Aldrich

eeAChE = target: T2, eeAChE (Electrophorus electricus, UniProt O42275); experiment: Cholinesterase inhibition, Ellman's protocol, eeAChE; assay type: biochemical; conditions: read-out: eeAChE % inh.
T2 construct: purchased Sigma-Aldrich
Protocol: In vitro pharmacological assays.
The in vitro inhibitory activity toward cholinesterases (eeAChE, eqBuChE,
The target compounds were tested for their inhibitory potency against cholinesterases using
Ellman’s protocol[32] modified for 96-well microplates.
The stock solutions of the
target compounds were prepared in DMSO and diluted with water, giving the desired final
concentrations. The enzymes were prepared as 5 U/mL aqueous stock solutions and diluted
(AChE or BuChE) were added to the reaction mixture in the wells, containing 25 μL of the
target compound (in case of blank samples – water or water/DMSO mixture), 200 μL of 0.1
M phosphate buffer (pH = 8.0) and 20 μL of 5,5'-dithiobis-(2-nitrobenzoic acid) DTNB
All those reagents were preincubated for 5 min at 25 °C for the reactions with the
animal enzymes (eeAChE or eqBuChe) and 36 °C for the human enzyme ( hBuChE) tests. The
enzymatic reaction was initiated by the addition of 20 μL of substrate acetylthiocholine iodide
using the EnSpire multimode microplate reader (PerkinElmer, Waltham, MA, USA). Target
compounds were tested at the screening concentrations of 10 μM or 1 µM for inhibitory
potencies towards animal cholinesterases or human enzyme, respectively. Percent of enzyme
inhibition was calculated based on the formula 100 -(S/B)x100, where S and B were the
respective enzyme activities with and without the test compound, respectively. Compounds
with the enzyme inhibitory activities at 10 μM better than 50% ( eeAChE or eqBuChe) and at
were based on the absorbance measured at seven different inhibitor concentrations, then
percentages of enzymes’ inhibition were plotted against the applied inhibitor concentrations
using nonlinear regression (GraphPad Prism 9; GraphPad Software, San Diego, CA, USA).
All the experiments were performed in
a %inh. at an inhibitor concentration of 10 µM

SH-SY5Y cells = experiment: Intracellular O2•-, DHE probe, SH-SY5Y; assay type: cell-based, human
ICR-CD1 mice = experiment: Acute toxicity study i.p. (MTD, biochemistry, histopathology); assay type: in vivo; parameters: key to prostration / tremor / convulsions / hyper/hypoventilation / drop of eyelids / ataxia / stooped posture: mild (+); moderate (++); severe (+++); conditions: for stooped posture: Female 1
Protocol: Toxicology and pharmacokinetic in vivo study
ICR-CD1 mice weighing 20–25 g were purchased from Velaz (Prague, Czech Republic).
They were kept in an air-conditioned room with the light from 07:00 to 19:00 hours and were allowed access to standard food and tap water ad libitum. The mice were divided into groups […]
Ethical approval statement
The experimental animals were handled under the supervision of the Ethics Committee of the […]
706288/2023-1457) and the treatment of animals was in full accordance with ethical standards laid down in respective Czech and EU regulations.
Design of in vivo experiments
Acute toxicity study – Maximal tolerated dose, biochemical analysis, and histopathologic […]
Mice (ICR-CD1, Velaz, Prague, Czech Republic) were randomly assigned to the experimental groups of two males and two females per one applied dose of 6. 6 was administered intraperitoneally (i.p., 0.1 mL/10 g of animal weight; 1% Tween 80). Several doses were administered to identify the toxic profile of tested compounds and establish the Maximal Tolerated Dose (MTD, i.p.). Treated animals were intensively observed for signs of toxicity, such as respiratory, cardiovascular, and nervous system disability. Weight loss or reduced food consumption was assessed according to the FELASA classification[39] in the first two hours and then periodically for the subsequent 46 hours. The toxicity signs were classified according to a previously published study.[40]
All animals surviving the 48 hours were deeply euthanized by CO2 and subjected to basic macroscopic necropsy. The blood was collected for biochemical analysis, and selected organs (kidney and liver) were collected for histopathologic examination.
Venous blood was collected into heparinized tubes (Scanlab Systems, Prague, Czech Republic). Plasma was subsequently separated (3,000 × g for 10 min, 4 °C) using centrifuge U-320R (Boeco, Hamburg, Germany). The concentration of urea and creatinine and the activity of alanine aminotransferase (ALT), aspartate aminotransferase (AST), alkaline […]
phosphatase (ALP), amylase, and lactate dehydrogenase (LDH) were measured in the accredited biochemical laboratory of the Department of Clinical Biochemistry and Diagnostics, University Hospital, Hradec Kralove, Czech Republic. Statistical data analysis was performed through IBM SPSS Statistics version 26 (IBM, Armonk, NY, USA) using the Kolmogorov-Smirnov and Shapiro-Wilk tests to test data normality. Due to normally distributed data, the Student´s t-test was used to assess the differences compared with the control group (p ≤ 0.05).
Samples of the liver and kidney were used for standard histopathological examination. Organs were fixed with 10% neutral buffered formalin (Bamed s.r.o., Ceske Budejovice, Czech Republic), histologically processed, and stained with hematoxylin and eosin (both Merck) according to Pejchal et al.[41] The histopathological changes were evaluated using a BX-51 microscope (Olympus, Tokyo, Japan). […]
The time intervals
PK studies). The samples were centrifuged at 3,000 × g for 10 min (10 °C), and the plasma samples were stored at -80 °C until the HPLC analysis.

[1] = 20 mg/kg i.p., Male 1, Female 1, Female 2
[2] = 40 mg/kg i.p., Male 1, Female 1, Female 2
[3] = 60 mg/kg i.p., Male 1, Male 2, Female 2
[4] = female mice, 10 mg/kg, Female 1, Female 2
[5] = female mice, 20 mg/kg, Female 1, Female 2
[6] = female mice, 40 mg/kg, Female 1, Female 2
[7] = female mice, 60 mg/kg, Female 1, Female 2
[8] = male mice, 10 mg/kg i.p., Male 1, Male 2
[9] = male mice, 20 mg/kg i.p., Male 1
[10] = male mice, 20 mg/kg i.p., Male 1, Male 2
[11] = male mice, 40 mg/kg i.p., Male 1, Male 2
[12] = male mice, 60 mg/kg i.p., Male 1, Male 2
[13] = male mice, 60 mg/kg i.p., Male 1, Male 2, 60 mg/kg

T1 sequence (P81908 whole entry): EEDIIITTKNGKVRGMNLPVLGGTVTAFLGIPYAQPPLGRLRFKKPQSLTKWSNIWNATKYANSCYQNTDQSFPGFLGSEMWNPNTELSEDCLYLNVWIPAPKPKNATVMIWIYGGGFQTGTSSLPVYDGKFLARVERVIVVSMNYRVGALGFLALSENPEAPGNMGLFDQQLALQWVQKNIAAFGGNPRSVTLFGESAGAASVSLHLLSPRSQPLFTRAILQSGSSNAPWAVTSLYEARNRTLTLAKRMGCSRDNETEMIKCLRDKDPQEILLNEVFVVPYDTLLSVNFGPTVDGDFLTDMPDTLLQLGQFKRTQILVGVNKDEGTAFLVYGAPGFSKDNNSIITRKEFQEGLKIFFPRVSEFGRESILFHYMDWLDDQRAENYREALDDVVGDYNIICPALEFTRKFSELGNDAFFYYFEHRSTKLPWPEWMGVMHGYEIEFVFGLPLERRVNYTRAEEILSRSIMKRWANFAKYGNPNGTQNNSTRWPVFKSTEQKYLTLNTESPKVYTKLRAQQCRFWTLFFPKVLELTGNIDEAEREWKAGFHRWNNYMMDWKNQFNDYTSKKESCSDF
T2 sequence (O42275 24-633): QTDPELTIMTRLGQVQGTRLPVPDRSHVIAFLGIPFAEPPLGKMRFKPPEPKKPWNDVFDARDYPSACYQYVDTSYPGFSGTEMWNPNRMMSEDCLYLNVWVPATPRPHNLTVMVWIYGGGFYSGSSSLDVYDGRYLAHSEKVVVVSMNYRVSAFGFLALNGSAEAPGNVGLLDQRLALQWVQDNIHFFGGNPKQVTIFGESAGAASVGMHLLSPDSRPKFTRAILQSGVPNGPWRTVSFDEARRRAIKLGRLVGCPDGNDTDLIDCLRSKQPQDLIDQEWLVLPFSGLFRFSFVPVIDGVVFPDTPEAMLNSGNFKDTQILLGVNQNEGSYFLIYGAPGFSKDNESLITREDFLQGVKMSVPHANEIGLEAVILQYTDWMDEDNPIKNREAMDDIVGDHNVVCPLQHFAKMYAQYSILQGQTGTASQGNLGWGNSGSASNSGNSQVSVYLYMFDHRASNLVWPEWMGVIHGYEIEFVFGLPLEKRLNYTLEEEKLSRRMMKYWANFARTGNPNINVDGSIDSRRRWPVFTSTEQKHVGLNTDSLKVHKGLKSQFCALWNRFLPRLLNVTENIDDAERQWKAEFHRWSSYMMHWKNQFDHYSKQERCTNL

O[C@H](CNCC1CC1)[C@H](Cc1ccccc1)NC1c2ccccc2-c2ccccc21 [Compound 6]
IC50 (eqBuChE): 310 ± 10 nM
inhibition at 10 µM (eeAChE): < 10%
increase in intracellular O2•- (SH-SY5Y cells; all concentrations and times): No significant increase
decrease of O2•- level (SH-SY5Y cells; conc. = IC50, 24 h): 15%
signs of poisoning at MTD (ICR-CD1 mice; 10 mg/kg i.p.): mild to moderate signs of poisoning may occur
ALP, plasma (ICR-CD1 mice; 10 mg/kg i.p., 48 h): 68.4 ± 27.2 U/L
ALT, plasma (ICR-CD1 mice; 10 mg/kg i.p., 48 h): 29.0 ± 6.5 U/L
AST, plasma (ICR-CD1 mice; 10 mg/kg i.p., 48 h): 56.8 ± 6.6 U/L
Amylase, plasma (ICR-CD1 mice; 10 mg/kg i.p., 48 h): 2960 ± 500 U/L and 2955 ± 501 U/L
LDH, plasma (ICR-CD1 mice; 10 mg/kg i.p., 48 h): 275 ± 94 U/L
Urea, plasma (ICR-CD1 mice; 10 mg/kg i.p., 48 h): 33.8 ± 8.2 mg/dL
blood biochemistry vs control (ICR-CD1 mice; 10 mg/kg i.p., 48 h, Student's t-test): No significant differences
Necropsy (ICR-CD1 mice; 10 mg/kg i.p., 48 h, table lines in order Male 1, Male 2, Female 1, Female 2): no macroscopic pathology; also recorded: no findings; also recorded: mild hyperemia in the peritoneal cavity
Histopathological findings, liver and renal tissue (ICR-CD1 mice; 10 mg/kg i.p., table lines in order Male 1, Male 2, Female 1, Female 2): no tissue damage; also recorded: dg: mild peritoneal irritation; also recorded: no findings
ALP, plasma (ICR-CD1 mice; 20 mg/kg i.p., N = 3): 60.4 ± 28.6 U/L
ALT, plasma (ICR-CD1 mice; 20 mg/kg i.p., N = 3): 27.0 ± 15.6 U/L
AST, plasma (ICR-CD1 mice; 20 mg/kg i.p., N = 3): 55.6 ± 6.7 U/L
Amylase, plasma (ICR-CD1 mice; 20 mg/kg i.p., N = 3): 3129 ± 444 U/L
LDH, plasma (ICR-CD1 mice; 20 mg/kg i.p., N = 3): 223 ± 38 U/L
Urea, plasma (ICR-CD1 mice; 20 mg/kg i.p., N = 3): 31.8 ± 6.7 mg/dL
Histopathological findings, liver and renal tissue (ICR-CD1 mice; [1]): dg: peritonitis
Necropsy (ICR-CD1 mice; [1]): moderate hyperemia in the abdominal cavity
ALP, plasma (ICR-CD1 mice; 40 mg/kg i.p., N = 3): 63.5 ± 26.9 U/L
ALT, plasma (ICR-CD1 mice; 40 mg/kg i.p., N = 3): 57.1 ± 16.5 U/L
AST, plasma (ICR-CD1 mice; 40 mg/kg i.p., N = 3): 82.4 ± 54.0 U/L
Amylase, plasma (ICR-CD1 mice; 40 mg/kg i.p., N = 3): 3485 ± 894 U/L
LDH, plasma (ICR-CD1 mice; 40 mg/kg i.p., N = 3): 511 ± 423 U/L
Urea, plasma (ICR-CD1 mice; 40 mg/kg i.p., N = 3): 93.6 ± 60.4 mg/dL
Histopathological findings, liver and renal tissue (ICR-CD1 mice; [2]): dg: severe peritonitis
Necropsy (ICR-CD1 mice; [2]): dilatation of small and large intestine loops; also recorded: dilatation of the stomach, small and large
ALP, plasma (ICR-CD1 mice; 60 mg/kg i.p., N = 3): 71.4 ± 23.4 U/L
ALT, plasma (ICR-CD1 mice; 60 mg/kg i.p., N = 3): 230.4 ± 140.7 U/L
AST, plasma (ICR-CD1 mice; 60 mg/kg i.p., N = 3): 318.0 ± 213.7 U/L
Amylase, plasma (ICR-CD1 mice; 60 mg/kg i.p., N = 3): 3723 ± 448 U/L
LDH, plasma (ICR-CD1 mice; 60 mg/kg i.p., N = 3): 1101 ± 562 U/L
Urea, plasma (ICR-CD1 mice; 60 mg/kg i.p., N = 3): 142.9 ± 145.2 mg/dL
Histopathological findings, liver and renal tissue (ICR-CD1 mice; [3]): dg: severe peritonitis
Necropsy (ICR-CD1 mice; [3]): dilatation of small and large intestine loops
hyper/hypoventilation (ICR-CD1 mice; female mice, 10 mg/kg i.p., lines in order Female 1, Female 2): +
drop of eyelids (ICR-CD1 mice; [4]): +
prostration (ICR-CD1 mice; [4]): +
tremor (ICR-CD1 mice; [4]): + and ++
convulsions (ICR-CD1 mice; female mice, 10 mg/kg, Female 2): +
stooped posture (ICR-CD1 mice; female mice, 20 mg/kg): +
drop of eyelids (ICR-CD1 mice; [5]): +
hyper/hypoventilation (ICR-CD1 mice; [5]): +
prostration (ICR-CD1 mice; [5]): ++
tremor (ICR-CD1 mice; [5]): + and ++
weight at 24 h (%) (ICR-CD1 mice; [5]): -4.2% and -1.8%
weight at 48 h (%) (ICR-CD1 mice; [5]): -6.5% and 0.0%
drop of eyelids (ICR-CD1 mice; [6]): +
hyper/hypoventilation (ICR-CD1 mice; [6]): ++
tremor (ICR-CD1 mice; [6]): +
weight at 24 h (%) (ICR-CD1 mice; [6]): -4.5% and -3.5%
weight at 48 h (%) (ICR-CD1 mice; [6]): -9.1% and -7.1%
stooped posture (ICR-CD1 mice; female mice, 60 mg/kg): +
drop of eyelids (ICR-CD1 mice; [7]): +
hyper/hypoventilation (ICR-CD1 mice; [7]): ++
tremor (ICR-CD1 mice; [7]): +
weight at 24 h (%) (ICR-CD1 mice; [7]): -5.0% and -6.6%
mortality (ICR-CD1 mice; female mice, 60 mg/kg, Female 1, before the 48-hour check-up): died overnight
weight at 48 h (%) (ICR-CD1 mice; female mice, 60 mg/kg, Female 2): -7.5%
prostration (ICR-CD1 mice; [8]): +
tremor (ICR-CD1 mice; [8]): +
hyper/hypoventilation (ICR-CD1 mice; male mice, 10 mg/kg i.p., lines in order Male 1, Male 2): +
weight at 24 h (%) (ICR-CD1 mice; [9]): -0.2%
weight at 48 h (%) (ICR-CD1 mice; [9]): +1.0%
ataxia (ICR-CD1 mice; [10]): +
drop of eyelids (ICR-CD1 mice; [10]): +
hyper/hypoventilation (ICR-CD1 mice; [10]): +
prostration (ICR-CD1 mice; [10]): ++
tremor (ICR-CD1 mice; [10]): +
convulsions (ICR-CD1 mice; male mice, 20 mg/kg i.p., Male 2): +++
mortality (ICR-CD1 mice; male mice, 20 mg/kg i.p., Male 2, before the 24-hour check-up): died overnight
weight at 48 h (%) (ICR-CD1 mice; male mice, 40 mg/kg i.p., Male 1): -6.7%
drop of eyelids (ICR-CD1 mice; [11]): +
hyper/hypoventilation (ICR-CD1 mice; [11]): ++
prostration (ICR-CD1 mice; [11]): ++
tremor (ICR-CD1 mice; [11]): +
weight at 24 h (%) (ICR-CD1 mice; male mice, 40 mg/kg i.p., Male 1, Male 2, 40 mg/kg): -6.1% and -7.0%
mortality (ICR-CD1 mice; male mice, 40 mg/kg i.p., Male 2, before the 48-hour check-up): died overnight
ataxia (ICR-CD1 mice; male mice, 60 mg/kg i.p., Male 1): +
drop of eyelids (ICR-CD1 mice; [12]): +
hyper/hypoventilation (ICR-CD1 mice; [12]): ++
prostration (ICR-CD1 mice; [12]): +++
tremor (ICR-CD1 mice; [12]): +
weight at 24 h (%) (ICR-CD1 mice; [13]): -3.6% and -10.5%
weight at 48 h (%) (ICR-CD1 mice; [13]): -16.0% and -15.6%
